This is an account of results in article PMC11284788, “NN1213 – A Potent, Long-Acting, and Selective Analog of Human Amylin” (Journal of Medicinal Chemistry, 2024).

The test system of one data set is DIO rats. Nature of the data set: DIO rat weight loss assay. The class given is in vivo. The following applies: for Absolute body weight Day 21: mean ± SEM; for reduction in body weight relative to baseline: 21 days, n = 8/group. The method, then:
The ability of NN1213 to reduce body weight was tested in DIO rats fed an HFD. Rats were dosed once daily sc with either vehicle or NN1213 (n = 8–10 per group). Food intake and body weight were measured daily on individually housed rats. […] Body fat and lean mass are expressed as changes from baseline.
VetXX, Specific CCD, Dechra, UK).
eaten within 30 min. […] In figure 4, mean accumulated food
rats were assessed in DIO rats.
controlled temperature conditions (22 °C).
Pharmacokinetic Evaluation.
Species n administration (nmol/kg) (h)

For data set [1] the following is noted: in vivo, iv.
Description: (§1) Blood samples were collected at fixed time points postdose to determine full PK profiles. Plasma samples were analyzed by ELISA. Plasma concentration–time profiles were analyzed by noncompartmental analysis.
Rabbits: Female rabbits (New Zealand white, Charles River; 21–23 weeks; 2.5–3.5 kg) were group-
housed (10 per cage) in normal day–night rhythm from arrival and had free access to food and water.
The rabbits were treated against coccidiosis during their 5-week acclimation period upon arrival. Iv
dosing was performed as a bolus injection into an ear vein with a dosing volume of 0.1 mL/kg. The
dosing solution was at room temperature before injection. Venous blood sampling was performed
directly through puncture of an ear vein using a needle. A full plasma concentration–time profile was
obtained from each animal.
Blood (300 µL) was collected directly into test
tubes containing EDTA buffer (Microvette CB 300 K2E). Samples were kept on wet ice until
centrifugation (10 min, 4 °C, 3000 rpm). Plasma (100 µL) was transferred immediately to Micronic
tubes and kept at –20 °C until analysis.
Plasma analysis: Plasma samples were analyzed by a commercially available kit (Millipore, Human
Amylin ELISA, cat. #EZHA-52-K). […]
was applied and the plate was read on a fluorescent reader with an excitation/emission wavelength of
samples. The lower limit of quantification (LLOQ) was 100–500 pM.
The nature of data set [2]: in vivo. Conditions: male, Sprague-Dawley, rat, iv.
Description: as §1
Pharmacokinetic Evaluation. Rats: Male Sprague-Dawley rats (Taconic, Europe; body weight
approximately 400 g) were group-housed under controlled temperature conditions (20 °C ± 2 °C).
Blood was collected from the sublingual vein and rats were acclimated to handling on three separate
occasions prior to blood collection.
the tail vein of five rats. Sc injections were performed in the neck of another group of five rats. The
dosing volume was 2 mL/kg.
collected into test tubes containing EDTA for stabilization and kept on ice until centrifugation. Each
blood sample was 100 µL. Plasma was separated from whole blood by centrifugation and was stored at
–20 °C or lower until analysis.
A short description of data set [3]: in vivo. The following applies: male, beagle, dog, iv.
Another data set relates to beagle dogs. The data set can be described thus: Acute dog food intake assay.
The next data set deals with cCTR. Nature of the data set: Species-specific cAMP assay, cCTR. The following applies: cAMP HTRF, transiently transfected BHK cells, 30 min room temperature, five experiments.
Another data set has as its target T1, hAMY3R (Homo sapiens, UniProt O60896+P30988).
T1 sequence (P30988 25-474): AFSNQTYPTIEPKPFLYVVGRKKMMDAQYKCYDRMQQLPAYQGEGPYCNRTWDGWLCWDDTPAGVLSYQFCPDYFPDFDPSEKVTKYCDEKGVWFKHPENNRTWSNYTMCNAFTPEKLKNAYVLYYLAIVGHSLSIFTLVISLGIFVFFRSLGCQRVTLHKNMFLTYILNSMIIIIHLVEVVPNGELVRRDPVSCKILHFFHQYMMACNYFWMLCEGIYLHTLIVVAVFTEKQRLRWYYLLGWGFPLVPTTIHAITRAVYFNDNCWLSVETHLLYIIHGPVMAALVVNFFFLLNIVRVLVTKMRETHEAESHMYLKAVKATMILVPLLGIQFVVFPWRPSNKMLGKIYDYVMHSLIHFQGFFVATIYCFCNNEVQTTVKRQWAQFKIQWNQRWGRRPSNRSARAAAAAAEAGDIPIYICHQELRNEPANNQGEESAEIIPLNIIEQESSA
T1 sequence (O60896 24-148 partner): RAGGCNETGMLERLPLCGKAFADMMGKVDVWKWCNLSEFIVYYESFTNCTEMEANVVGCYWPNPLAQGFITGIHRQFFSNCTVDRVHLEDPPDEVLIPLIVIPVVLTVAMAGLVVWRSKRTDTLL
Nature of the data set: Species-specific cAMP assay, hAMY3R. The following applies: ratio of cAMP EC50 values, human receptors. A general note: Cyclic AMP is a second messenger, typically raised through Gs and lowered through Gi signalling.

A further data set has as its system cAMY1R. Nature of the data set: Species-specific cAMP assay, cAMY1R. Conditions: for Ratio CTR/AMY1R (canine, functional): ratio of cAMP EC50 values, canine receptors.
For data set [4], the target named is T2, rAMY1R (Rattus norvegicus, UniProt P32214+Q9JJ74).
T2 sequence (P32214 25-516): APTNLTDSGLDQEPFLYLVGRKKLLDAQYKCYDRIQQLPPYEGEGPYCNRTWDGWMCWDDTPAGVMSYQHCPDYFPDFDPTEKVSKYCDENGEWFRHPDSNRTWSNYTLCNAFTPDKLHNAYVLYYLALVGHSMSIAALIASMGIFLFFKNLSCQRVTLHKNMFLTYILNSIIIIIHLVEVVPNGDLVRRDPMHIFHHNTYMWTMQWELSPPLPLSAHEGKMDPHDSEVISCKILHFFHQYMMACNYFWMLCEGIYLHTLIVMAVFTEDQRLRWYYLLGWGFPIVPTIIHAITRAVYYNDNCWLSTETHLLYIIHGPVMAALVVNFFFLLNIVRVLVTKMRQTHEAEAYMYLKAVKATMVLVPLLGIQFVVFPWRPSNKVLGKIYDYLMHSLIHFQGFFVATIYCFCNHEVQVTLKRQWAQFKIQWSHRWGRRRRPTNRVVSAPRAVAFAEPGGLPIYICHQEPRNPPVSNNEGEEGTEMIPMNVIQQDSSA
T2 sequence (Q9JJ74 27-148 partner): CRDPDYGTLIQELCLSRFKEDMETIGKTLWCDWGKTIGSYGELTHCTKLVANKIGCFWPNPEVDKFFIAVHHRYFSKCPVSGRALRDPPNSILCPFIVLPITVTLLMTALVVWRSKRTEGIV
Nature of the data set: Species-specific cAMP assay, rAMY1R. The following applies: ratio of cAMP EC50 values, rat receptors.

The next data set addresses T3, rAMY3R (Rattus norvegicus, UniProt P32214+Q9JJ73).
T3 sequence (P32214 25-479 isoform P32214-2 limits assumed): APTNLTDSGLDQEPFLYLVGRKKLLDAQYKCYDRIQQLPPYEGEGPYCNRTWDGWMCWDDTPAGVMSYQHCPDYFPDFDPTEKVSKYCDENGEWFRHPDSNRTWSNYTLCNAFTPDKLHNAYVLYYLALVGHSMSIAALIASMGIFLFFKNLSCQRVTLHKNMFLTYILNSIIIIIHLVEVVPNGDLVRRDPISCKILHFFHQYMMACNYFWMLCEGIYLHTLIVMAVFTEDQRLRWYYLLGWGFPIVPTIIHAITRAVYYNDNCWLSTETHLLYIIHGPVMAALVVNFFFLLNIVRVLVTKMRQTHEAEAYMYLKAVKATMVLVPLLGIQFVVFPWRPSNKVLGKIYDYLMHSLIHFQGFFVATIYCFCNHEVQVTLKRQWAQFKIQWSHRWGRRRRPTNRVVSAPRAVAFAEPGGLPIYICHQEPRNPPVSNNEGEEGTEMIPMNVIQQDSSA
T3 sequence (Q9JJ73 23-147 partner): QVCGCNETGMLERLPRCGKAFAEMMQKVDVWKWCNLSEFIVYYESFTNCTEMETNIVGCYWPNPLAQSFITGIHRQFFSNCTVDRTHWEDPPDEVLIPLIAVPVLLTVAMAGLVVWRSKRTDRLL
The data set can be described thus: Species-specific cAMP assay, rAMY3R. The following applies: ratio of cAMP EC50 values, rat receptors.

Data set [5] addresses T2, rAMY1R. Nature of the data set: Whole-cell competition binding, rAMY1R. Also on record: expressed in transfected cells; host or cells: BHK tk-ts 13 cells, transient, FuGENE 6. Conditions: IC50 for the CTR divided by that of the AMYR, rat receptors.

One may read the half-life as the time in which the quantity being followed falls by half. A high value points to slow loss. Turning to `CC[C@H](C)[C@H](NC(=O)[C@H](C)NC(=O)CNC(=O)[C@H](Cc1ccccc1)NC(=O)[C@H](CC(N)=O)NC(=O)[C@@H]1CCCN1C(=O)[C@H](CO)NC(=O)[C@H](CO)NC(=O)[C@H](Cc1c[nH]cn1)NC(=O)[C@H](CCCNC(=N)N)NC(=O)[C@H](CC(C)C)NC(=O)[C@H](Cc1ccccc1)NC(=O)[C@H](CC(=O)O)NC(=O)[C@H](C)NC(=O)[C@H](CC(C)C)NC(=O)[C@H](CCCNC(=N)N)NC(=O)[C@H](CCC(N)=O)NC(=O)[C@@H](NC(=O)[C@H](C)NC(=O)[C@@H]1CSSC[C@H](NC(=O)[C@@H](N)CCCCNC(=O)CC[C@H](NC(=O)CC[C@H](NC(=O)CCCCCCCCCCCCCCCCCCC(=O)O)C(=O)O)C(=O)O)C(=O)N[C@@H](CC(N)=O)C(=O)N[C@@H]([C@@H](C)O)C(=O)N[C@@H](C)C(=O)N[C@@H]([C@@H](C)O)C(=O)N1)[C@@H](C)O)C(=O)N1CCC[C@H]1C(=O)N[C@@H](CO)C(=O)N[C@@H](CO)C(=O)N[C@H](C(=O)N[C@@H](CC(N)=O)C(=O)N[C@H](C(=O)NCC(=O)N[C@@H](CO)C(=O)N[C@@H](CCCNC(=N)N)C(=O)N[C@H](C(=O)N[C@@H](Cc1ccc(O)cc1)C(N)=O)[C@@H](C)O)C(C)C)[C@@H](C)O` [NN1213], the “Absolute body weight Day 21” value in the data set on DIO rats (3 µg/kg (0.7 nmol/kg) sc once daily) is on record as 705.5 ± 38.4 g; in the data set with DIO rats (10 µg/kg (2.2 nmol/kg) sc once daily), 664.4 ± 19.3 g; in the data set on DIO rats (30 µg/kg (6.6 nmol/kg) sc once daily), 682.4 ± 27.7 g; in the data set on DIO rats (100 µg/kg (22 nmol/kg) sc once daily), 667.8 ± 11.9 g. Besides, the “body weight lost after 21 days” value is reported as 69.6 ± 7.5 g in the data set on DIO rats (high-dose group (22 nmol/kg) sc once daily) and 32.0 ± 3.6 g in the data set on DIO rats (low-dose group 0.7 nmol/kg sc once daily). The “reduction in body weight relative to baseline” value is 4.7% with DIO rats (sc once daily 0.7 nmol/kg) and 8.7–9.3% with DIO rats (sc once daily 2.2, 6.6, 22 nmol/kg doses). Moreover, the “terminal plasma half-life (T1/2), rabbit” value in [1] is on record as “approximately 50 h”. In addition, the half-life in the data set “in vivo [2]” is 24 h; in “in vivo [3]”, 76 h. The “food intake reduction, first 48 h” value in the data set on beagle dogs (single sc administration 300 nmol/kg, four meals over 48 h) is recorded as 90%. The effect on appetite result in the data set with beagle dogs (single sc dose 3 nmol/kg) is reported as “did not affect appetite”. The “duration of appetite suppression” value with beagle dogs (single sc dose 30 nmol/kg) is “at least 7 days”. Further, the “tolerability (discomfort, vomiting)” value in the data set with beagle dogs (single sc dose ranging from 3 to 300 nmol/kg) is “not associated with any signs of discomfort in the dogs and no vomiting”. Moreover, in the data set with cCTR, the “cCTR pEC50” value is on record as 9.39. Besides, the “Ratio CTR/AMY3R (human, functional)” value at hAMY3R is given as 51. The “cAMY1R pEC50” value in the data set with cAMY1R (cAMP HTRF, transiently transfected BHK cells, 30 min room temperature, five experiments) turned out to be 9.87. The “Ratio CTR/AMY1R (canine, functional)” value with cAMY1R is 3; in the data set with cAMY1R (listed as NN1213/peptide 21), 2. At rAMY1R [4], the “Ratio CTR/AMY1R (rat, functional)” value is 336. In addition, the “Ratio CTR/AMY3R (rat, functional)” value at rAMY3R is recorded as 144. In addition, the “Ratio CTR/AMY1R (rat, binding)” value on rAMY1R [5] came to 190.
